Test [1] addresses T1, 5-hydroxytryptamine receptor 2C (Homo sapiens, UniProt P28335).
T1 sequence (P28335 whole entry): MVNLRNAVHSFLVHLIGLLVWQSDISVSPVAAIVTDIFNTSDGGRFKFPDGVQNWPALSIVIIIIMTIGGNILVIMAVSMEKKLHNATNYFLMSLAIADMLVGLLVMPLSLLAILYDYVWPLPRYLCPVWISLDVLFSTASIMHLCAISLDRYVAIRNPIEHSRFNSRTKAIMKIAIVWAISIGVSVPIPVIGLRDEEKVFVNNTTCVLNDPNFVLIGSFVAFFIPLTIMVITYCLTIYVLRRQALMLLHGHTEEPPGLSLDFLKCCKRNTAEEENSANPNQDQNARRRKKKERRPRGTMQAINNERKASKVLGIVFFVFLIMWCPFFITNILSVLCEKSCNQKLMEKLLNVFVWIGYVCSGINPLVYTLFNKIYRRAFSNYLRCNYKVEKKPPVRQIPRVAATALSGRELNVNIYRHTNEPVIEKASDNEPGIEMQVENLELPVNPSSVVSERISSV
As to the kind of experiment: Binding affinity towards 5-hydroxytryptamine 2C receptor.

Test [2] has as its target T2, Serotonin 3 (5-HT3) receptor (Rattus norvegicus, UniProt P35563+Q9JJ16).
T2 sequence (P35563 whole entry): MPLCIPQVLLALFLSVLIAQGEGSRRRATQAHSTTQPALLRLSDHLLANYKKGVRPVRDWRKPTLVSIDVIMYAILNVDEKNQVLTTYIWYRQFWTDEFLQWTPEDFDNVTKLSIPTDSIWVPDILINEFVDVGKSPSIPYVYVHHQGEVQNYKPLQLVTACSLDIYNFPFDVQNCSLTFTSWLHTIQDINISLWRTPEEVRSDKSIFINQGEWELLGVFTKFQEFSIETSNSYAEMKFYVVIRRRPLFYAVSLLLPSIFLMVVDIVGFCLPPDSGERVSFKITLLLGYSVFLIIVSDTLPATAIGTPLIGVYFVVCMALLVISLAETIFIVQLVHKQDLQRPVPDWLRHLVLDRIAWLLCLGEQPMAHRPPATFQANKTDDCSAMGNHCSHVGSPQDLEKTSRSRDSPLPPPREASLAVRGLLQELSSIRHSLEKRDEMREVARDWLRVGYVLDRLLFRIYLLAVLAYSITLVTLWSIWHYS
T2 sequence (Q9JJ16 whole entry): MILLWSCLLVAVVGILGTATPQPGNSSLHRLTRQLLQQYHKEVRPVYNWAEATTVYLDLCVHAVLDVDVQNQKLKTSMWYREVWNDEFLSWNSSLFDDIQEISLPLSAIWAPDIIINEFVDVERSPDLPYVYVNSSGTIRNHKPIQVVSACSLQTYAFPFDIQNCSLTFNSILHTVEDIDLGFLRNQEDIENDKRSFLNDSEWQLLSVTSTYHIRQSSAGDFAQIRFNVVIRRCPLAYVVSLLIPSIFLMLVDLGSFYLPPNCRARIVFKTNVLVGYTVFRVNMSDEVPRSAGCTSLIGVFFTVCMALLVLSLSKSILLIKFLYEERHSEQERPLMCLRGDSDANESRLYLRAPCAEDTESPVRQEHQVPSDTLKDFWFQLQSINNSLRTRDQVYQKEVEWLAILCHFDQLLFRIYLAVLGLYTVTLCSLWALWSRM
As to the kind of experiment: Binding affinity towards 5-hydroxytryptamine 3 receptor. In kind it is protein-complex assay.

Test [3] addresses Adenosine receptor A1 (Homo sapiens) (UniProt P30542). Nature of the test: Inhibitory activity against Adenosine A1 receptor using [3H]DPCPX at […] (M).
Test [4] concerns the target Adrenergic receptor alpha-2 (Homo sapiens) (UniProt P08913+P18825+P18089). Nature of the test: Inhibitory activity against Alpha-2 adrenergic receptor using [3H]RX-821002 at 10e-5 (M). In kind it is protein assay.
Test [5] concerns the target Beta-1 adrenergic receptor (Homo sapiens) (UniProt P08588). Nature of the test: Inhibitory activity against Beta-1 adrenergic receptor using [3H]CGP-12177 at 10e-5 (M).
Test [6] is described as follows: Inhibition of [3H]PK11195 binding to peripheral Benzodiazepine receptor at 10e-5 M.
The target in test [7] is Gastrin/cholecystokinin type B receptor (Homo sapiens) (UniProt P32239). Nature of the test: Inhibitory activity against Cholecystokinin type B receptor using [3H]CCK-8 at […] (M).
Sequence of Gastrin/cholecystokinin type B receptor (Homo sapiens) (P32239 whole entry): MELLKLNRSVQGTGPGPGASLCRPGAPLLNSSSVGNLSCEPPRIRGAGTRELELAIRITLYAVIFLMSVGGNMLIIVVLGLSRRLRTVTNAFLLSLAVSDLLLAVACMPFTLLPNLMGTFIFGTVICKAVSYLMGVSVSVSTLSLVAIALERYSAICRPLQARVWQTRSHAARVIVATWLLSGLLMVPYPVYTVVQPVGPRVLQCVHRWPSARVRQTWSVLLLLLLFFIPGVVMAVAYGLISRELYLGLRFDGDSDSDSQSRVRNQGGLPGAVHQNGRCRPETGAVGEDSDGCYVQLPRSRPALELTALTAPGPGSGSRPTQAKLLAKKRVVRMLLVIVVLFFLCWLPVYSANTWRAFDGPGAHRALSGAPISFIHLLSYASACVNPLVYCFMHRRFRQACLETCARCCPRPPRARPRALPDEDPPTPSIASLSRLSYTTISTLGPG
The target of test [8] is Interleukin-1 receptor type 1 (Homo sapiens) (UniProt P14778). As to the kind of experiment: Inhibitory activity against Interleukin 1d using [3H]IL-1-alpha at […] (M).
Sequence of Interleukin-1 receptor type 1 (Homo sapiens) (P14778 whole entry): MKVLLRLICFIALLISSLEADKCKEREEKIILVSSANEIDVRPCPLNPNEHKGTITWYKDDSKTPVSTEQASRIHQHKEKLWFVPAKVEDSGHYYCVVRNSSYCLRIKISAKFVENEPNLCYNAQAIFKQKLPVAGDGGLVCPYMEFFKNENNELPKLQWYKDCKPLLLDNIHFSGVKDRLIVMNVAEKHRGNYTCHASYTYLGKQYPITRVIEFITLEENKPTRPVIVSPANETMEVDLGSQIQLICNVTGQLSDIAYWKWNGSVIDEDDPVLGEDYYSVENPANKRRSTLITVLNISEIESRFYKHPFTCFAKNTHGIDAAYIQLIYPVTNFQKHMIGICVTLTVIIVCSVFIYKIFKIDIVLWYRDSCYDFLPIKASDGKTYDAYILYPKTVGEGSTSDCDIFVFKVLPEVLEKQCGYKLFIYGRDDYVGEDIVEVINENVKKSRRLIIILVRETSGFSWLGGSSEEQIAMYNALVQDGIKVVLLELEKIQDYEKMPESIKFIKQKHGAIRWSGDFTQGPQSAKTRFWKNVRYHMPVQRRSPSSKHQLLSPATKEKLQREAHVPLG
For test [9], the target named is Insulin receptor (Homo sapiens) (UniProt P06213). As to the kind of experiment: Displacement of [3H]insulin from Insulin receptor at 10e-5 M. (Displacement assays read how much labelled ligand stays bound in the presence of the test substance.)
Sequence of Insulin receptor (Homo sapiens) (P06213 28-758 limits assumed): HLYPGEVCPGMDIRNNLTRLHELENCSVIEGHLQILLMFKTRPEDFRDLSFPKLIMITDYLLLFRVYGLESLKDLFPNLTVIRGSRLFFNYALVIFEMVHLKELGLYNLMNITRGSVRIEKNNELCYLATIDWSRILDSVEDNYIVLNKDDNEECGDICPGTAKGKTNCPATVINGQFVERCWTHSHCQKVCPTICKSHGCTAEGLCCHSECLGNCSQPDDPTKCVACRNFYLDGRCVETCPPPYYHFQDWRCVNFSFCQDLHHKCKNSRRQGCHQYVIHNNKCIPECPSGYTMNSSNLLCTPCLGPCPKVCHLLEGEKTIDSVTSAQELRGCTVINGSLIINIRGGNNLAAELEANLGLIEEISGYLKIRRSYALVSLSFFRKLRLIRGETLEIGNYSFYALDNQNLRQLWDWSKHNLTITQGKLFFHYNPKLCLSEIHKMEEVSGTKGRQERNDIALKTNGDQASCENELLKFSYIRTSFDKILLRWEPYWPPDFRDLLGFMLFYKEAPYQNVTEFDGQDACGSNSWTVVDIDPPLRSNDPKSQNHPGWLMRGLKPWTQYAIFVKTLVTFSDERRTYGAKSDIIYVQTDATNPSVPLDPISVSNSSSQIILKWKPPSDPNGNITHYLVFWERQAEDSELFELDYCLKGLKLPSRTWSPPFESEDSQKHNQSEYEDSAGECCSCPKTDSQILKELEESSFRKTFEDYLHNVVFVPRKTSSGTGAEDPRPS
Sequence of Insulin receptor (Homo sapiens) (P06213 763-1382 limits assumed): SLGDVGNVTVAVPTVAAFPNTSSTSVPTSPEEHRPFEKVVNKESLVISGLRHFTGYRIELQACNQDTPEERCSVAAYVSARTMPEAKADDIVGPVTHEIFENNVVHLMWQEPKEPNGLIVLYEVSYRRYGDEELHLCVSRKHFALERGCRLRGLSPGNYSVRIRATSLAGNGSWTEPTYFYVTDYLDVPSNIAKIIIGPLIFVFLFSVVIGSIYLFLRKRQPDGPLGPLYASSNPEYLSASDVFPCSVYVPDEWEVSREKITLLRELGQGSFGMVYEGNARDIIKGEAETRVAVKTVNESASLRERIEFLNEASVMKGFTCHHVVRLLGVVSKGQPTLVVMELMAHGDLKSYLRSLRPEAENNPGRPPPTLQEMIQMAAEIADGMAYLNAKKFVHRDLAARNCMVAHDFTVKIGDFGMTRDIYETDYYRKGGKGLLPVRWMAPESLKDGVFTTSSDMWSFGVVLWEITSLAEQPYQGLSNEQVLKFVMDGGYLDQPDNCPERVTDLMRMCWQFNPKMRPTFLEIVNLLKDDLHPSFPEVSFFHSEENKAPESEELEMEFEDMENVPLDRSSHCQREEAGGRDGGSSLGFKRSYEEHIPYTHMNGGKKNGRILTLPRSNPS
Test [10] concerns the target Glutamate receptor ionotropic kainate (Homo sapiens) (UniProt P39086+Q16478+Q16099+Q13002+Q13003). As to the kind of experiment: Inhibitory activity against Ionotropic glutamate receptor kainate using [3H]- Kainate at […] (M). In kind it is protein-complex assay.
The target in test [11] is Mu-type opioid receptor (Homo sapiens) (UniProt P35372). As to the kind of experiment: Inhibitory activity against Opioid receptor mu 1 using [3H]DAMGO at 10e-5 (M).
Sequence of Mu-type opioid receptor (Homo sapiens) (P35372 whole entry): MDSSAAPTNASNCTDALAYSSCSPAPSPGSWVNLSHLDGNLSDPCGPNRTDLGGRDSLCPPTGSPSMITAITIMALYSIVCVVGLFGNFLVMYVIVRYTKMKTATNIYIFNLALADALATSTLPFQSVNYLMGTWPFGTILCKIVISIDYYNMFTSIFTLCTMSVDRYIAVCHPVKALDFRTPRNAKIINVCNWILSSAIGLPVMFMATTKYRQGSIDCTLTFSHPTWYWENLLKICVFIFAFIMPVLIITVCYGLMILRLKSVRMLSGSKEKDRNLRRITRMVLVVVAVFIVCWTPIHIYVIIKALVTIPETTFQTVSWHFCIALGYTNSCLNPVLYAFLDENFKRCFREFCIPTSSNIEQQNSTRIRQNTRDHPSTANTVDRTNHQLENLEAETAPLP
The target in test [12] is T3, Glutamate [NMDA] receptor (Homo sapiens) (UniProt Q05586+Q12879+Q13224+O15399+O60391+Q14957+Q8TCU5). As to the kind of experiment: Inhibitory activity against Phencyclidine receptor using [3H]-TCP at […] (M). In kind it is protein-complex assay.
The nature of test [13]: Inhibition of [3H]batrachotoxin binding to sodium channel at 10e-5 M.
Test [14] is described as follows: Inhibition of [3H]batrachotoxin binding to sodium channel at 10e-7 M.
For test [15], the target named is Tumor necrosis factor receptor superfamily member 1A (Homo sapiens) (UniProt P19438). Nature of the test: Inhibitory activity against TNF using [125]TNF at 10e-5 (M).
Sequence of Tumor necrosis factor receptor superfamily member 1A (Homo sapiens) (P19438 whole entry): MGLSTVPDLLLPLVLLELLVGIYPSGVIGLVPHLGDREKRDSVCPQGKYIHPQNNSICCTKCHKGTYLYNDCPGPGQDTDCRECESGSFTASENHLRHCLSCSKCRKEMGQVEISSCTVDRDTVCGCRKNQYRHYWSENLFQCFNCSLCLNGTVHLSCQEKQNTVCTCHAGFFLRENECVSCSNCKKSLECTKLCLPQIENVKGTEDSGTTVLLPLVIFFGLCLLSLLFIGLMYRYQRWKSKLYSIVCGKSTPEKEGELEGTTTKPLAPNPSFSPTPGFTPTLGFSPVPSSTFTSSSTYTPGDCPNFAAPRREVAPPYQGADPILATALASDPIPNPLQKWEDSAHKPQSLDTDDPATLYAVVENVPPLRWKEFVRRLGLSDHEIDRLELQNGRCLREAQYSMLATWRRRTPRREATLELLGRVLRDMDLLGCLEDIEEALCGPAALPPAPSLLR
The target of test [16] is T3, Glutamate [NMDA] receptor (Homo sapiens). As to the kind of experiment: Inhibitory activity against NMDA using [3H]CGS-19,755 at […] (M). It counts as protein-complex assay.
The target of test [17] is 5-hydroxytryptamine receptor 1B (Rattus norvegicus, UniProt P28564). Nature of the test: Binding affinity for 5-hydroxytryptamine 1B receptor.
Sequence of 5-hydroxytryptamine receptor 1B (P28564 whole entry): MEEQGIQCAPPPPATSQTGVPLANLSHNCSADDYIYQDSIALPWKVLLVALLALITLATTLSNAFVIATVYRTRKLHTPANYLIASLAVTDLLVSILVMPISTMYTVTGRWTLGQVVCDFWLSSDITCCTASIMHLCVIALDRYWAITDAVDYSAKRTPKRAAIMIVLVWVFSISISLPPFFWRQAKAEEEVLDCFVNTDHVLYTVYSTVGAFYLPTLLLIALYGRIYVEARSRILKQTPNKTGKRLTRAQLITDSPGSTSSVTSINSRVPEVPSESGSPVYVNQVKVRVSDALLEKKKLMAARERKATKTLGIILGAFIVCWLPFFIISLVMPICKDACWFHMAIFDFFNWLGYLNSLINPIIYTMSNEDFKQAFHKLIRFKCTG
Test [18] concerns the target 5-hydroxytryptamine receptor 2A (Bos taurus, UniProt Q75Z89). Nature of the test: Binding affinity towards 5-hydroxytryptamine 2A receptor.
The target of test [19] is Cholecystokinin receptor type A (Homo sapiens) (UniProt P32238). Nature of the test: Inhibitory activity against Cholecystokinin type A receptor using [3H]L-364718 at […] (M).
Sequence of Cholecystokinin receptor type A (Homo sapiens) (P32238 whole entry): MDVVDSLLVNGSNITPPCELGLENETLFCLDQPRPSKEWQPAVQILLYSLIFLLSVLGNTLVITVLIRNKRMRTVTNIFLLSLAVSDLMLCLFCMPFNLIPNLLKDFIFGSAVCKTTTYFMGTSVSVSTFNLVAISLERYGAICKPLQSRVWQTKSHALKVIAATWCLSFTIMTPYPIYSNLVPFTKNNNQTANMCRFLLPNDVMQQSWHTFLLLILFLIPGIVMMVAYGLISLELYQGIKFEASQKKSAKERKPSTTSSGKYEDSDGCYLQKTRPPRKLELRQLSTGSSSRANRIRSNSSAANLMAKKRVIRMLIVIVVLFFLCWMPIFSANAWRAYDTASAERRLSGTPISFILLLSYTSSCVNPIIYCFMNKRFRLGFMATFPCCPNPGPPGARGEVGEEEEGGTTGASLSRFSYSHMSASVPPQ

Sequence of Adenosine receptor A1 (Homo sapiens) (P30542 whole entry): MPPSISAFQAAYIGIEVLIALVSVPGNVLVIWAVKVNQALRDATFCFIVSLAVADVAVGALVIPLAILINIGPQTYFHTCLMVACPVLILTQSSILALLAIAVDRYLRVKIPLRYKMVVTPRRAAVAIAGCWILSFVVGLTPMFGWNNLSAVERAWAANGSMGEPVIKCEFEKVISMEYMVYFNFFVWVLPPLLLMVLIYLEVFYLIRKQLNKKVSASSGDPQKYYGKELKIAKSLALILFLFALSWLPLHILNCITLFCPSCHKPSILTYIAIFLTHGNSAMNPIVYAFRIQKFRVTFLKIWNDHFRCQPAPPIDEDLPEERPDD
Sequence of 5-hydroxytryptamine receptor 2A (Q75Z89 whole entry): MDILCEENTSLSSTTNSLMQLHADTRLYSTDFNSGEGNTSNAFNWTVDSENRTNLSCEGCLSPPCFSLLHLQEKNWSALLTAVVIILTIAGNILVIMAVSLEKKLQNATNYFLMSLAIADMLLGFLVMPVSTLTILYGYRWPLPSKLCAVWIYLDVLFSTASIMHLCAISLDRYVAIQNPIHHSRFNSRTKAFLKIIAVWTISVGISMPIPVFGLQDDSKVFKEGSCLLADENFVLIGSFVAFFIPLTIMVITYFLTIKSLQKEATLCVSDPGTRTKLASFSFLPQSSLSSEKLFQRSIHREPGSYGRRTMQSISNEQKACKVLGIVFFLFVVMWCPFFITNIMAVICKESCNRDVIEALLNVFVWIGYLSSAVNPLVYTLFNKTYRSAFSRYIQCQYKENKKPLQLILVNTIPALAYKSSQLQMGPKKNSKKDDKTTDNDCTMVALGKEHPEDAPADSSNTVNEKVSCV

The term IC50 denotes the concentration needed to halve the response being measured. A high value points to lower potency. By inhibition is commonly meant the drop in the measured response relative to a control, in per cent. High values mean a strong effect, low ones a weak effect. Take `c1ccc(CN2CCN(c3nc4ccsc4n4cccc34)CC2)cc1`: the 50% inhibitory concentration (IC50) in [1] was 1860 nM; in test [2], 1.41 nM; in test [17], 1020 nM; in test [18] it was 4370 nM. Besides, the inhibition in test [3] came to 23%; in [4], 29%; in [5] it was 21%; in [6], 34%; in [7], 18%; in [8], 1%. The inhibition turned out to be 15% in [9]; 12% in [10]; 29% in [11]; 10% in test [12]; 79% in test [13]; 28% in test [14]. In addition, the inhibition in [15] is 7%; in [16] it was 19%; in test [19], 7%.

(Values after ChEMBL document CHEMBL1129317, “Novel selective and partial agonists of 5-HT3 receptors. Part 1. Synthesis and biological evaluation of piperazinopyrrolothienopyrazines” (J Med Chem, 1996).)
